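Values below derive from 48-hour exposures of cells grown in 96-well plates, with endpoints linearly interpolated between the two concentrations bracketing the appropriate inhibition level. GI50 marks 50% less growth.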 The source made the active and inactive calls. Cut-off read from the data, not from the text of the source: active = GI50 up to about 1.1 µM and inactive = higher.
Key:
Assay in all cases: NCI-60 cell line screen, 48 h
OVCAR-3 = test system: OVCAR-3
HCT-15 = test system: HCT-15
TK-10 = test system: TK-10
A549 = test system: A549
NCI-H23 = test system: NCI-H23
HT-29 = test system: HT-29
ACHN = test system: ACHN
PC-3 = test system: PC-3
LOX IMVI = test system: LOX IMVI
SNB-75 = test system: SNB-75
SF-295 = test system: SF-295
SK-MEL-28 = test system: SK-MEL-28
RXF 393 = test system: RXF 393
MDA-MB-435 = test system: MDA-MB-435
COLO 205 = test system: COLO 205
MDA-N = test system: MDA-N
CAKI-1 = test system: CAKI-1
UO-31 = test system: UO-31
OVCAR-5 = test system: OVCAR-5
SF-268 = test system: SF-268
SR = test system: SR
NCI/ADR-RES = test system: NCI/ADR-RES
NCI-H522 = test system: NCI-H522
IGROV-1 = test system: IGROV-1
SN12C = test system: SN12C
SNB-19 = test system: SNB-19
SF-539 = test system: SF-539
A498 = test system: A498
HCT-116 = test system: HCT-116
T47D = test system: T47D
Hs-578T = test system: Hs-578T
U-251 = test system: U-251
MCF7 = test system: MCF7
CCRF-CEM = test system: CCRF-CEM
RPMI-8226 = test system: RPMI-8226
SW-620 = test system: SW-620
HOP-62 = test system: HOP-62
HL-60 = test system: HL-60
OVCAR-4 = test system: OVCAR-4
OVCAR-8 = test system: OVCAR-8
SK-OV-3 = test system: SK-OV-3
SK-MEL-2 = test system: SK-MEL-2
EKVX = test system: EKVX
MOLT-4 = test system: MOLT-4
HOP-92 = test system: HOP-92
K562 = test system: K562
KM12 = test system: KM12
MDA-MB-231 = test system: MDA-MB-231
Malme-3M = test system: Malme-3M
M14 = test system: M14
UACC-257 = test system: UACC-257
DU-145 = test system: DU-145
SK-MEL-5 = test system: SK-MEL-5
NCI-H226 = test system: NCI-H226
786-0 = test system: 786-0
NCI-H460 = test system: NCI-H460
UACC-62 = test system: UACC-62
HCC 2998 = test system: HCC 2998

Which GI50 (OVCAR-3) does the source give for O=C1NC(N2CCCCC2)=N/C1=C\c1ccccc1O here?
Its GI50 is > 100 µM (inactive).

And the GI50 (HCT-15)?
The GI50 was over 100 µM.

What about the GI50 (TK-10) of the same compound?
The GI50 was > 100 µM (inactive).

What about the GI50 (A549) of the same compound?
The GI50 was > 100 µM (inactive).

And the GI50 (NCI-H23)?
Its GI50 is > 100 µM (inactive).

And the GI50 (HT-29)?
Its GI50 is > 100 µM (inactive).

And the GI50 (ACHN)?
Its GI50 is > 100 µM (inactive).

What about the GI50 (PC-3) of the same compound?
The GI50 was > 100 µM (inactive).

And the GI50 (LOX IMVI)?
Its GI50 is > 100 µM (inactive).

And the GI50 (SNB-75)?
The GI50 was 27.9 µM (inactive).

And the GI50 (SF-295)?
Its GI50 is > 100 µM (inactive).

And the GI50 (SK-MEL-28)?
The GI50 was > 100 µM (inactive).

And the GI50 (RXF 393)?
The GI50 was > 100 µM (inactive).

What about the GI50 (MDA-MB-435) of the same compound?
The GI50 was > 100 µM (inactive).

What about the GI50 (COLO 205) of the same compound?
Its GI50 is > 100 µM (inactive).

What about the GI50 (MDA-N) of the same compound?
The GI50 was > 100 µM (inactive).

And the GI50 (CAKI-1)?
Its GI50 is > 100 µM (inactive).

What about the GI50 (UO-31) of the same compound?
Its GI50 is > 100 µM (inactive).

What about the GI50 (OVCAR-5) of the same compound?
Its GI50 is > 100 µM (inactive).

What about the GI50 (SF-268) of the same compound?
The GI50 was > 100 µM (inactive).

And the GI50 (SR)?
The GI50 was > 10 µM (inactive).

What about the GI50 (NCI/ADR-RES) of the same compound?
Its GI50 is > 100 µM (inactive).

What about the GI50 (NCI-H522) of the same compound?
Its GI50 is 19.8 µM (inactive).

What about the GI50 (IGROV-1) of the same compound?
The GI50 was > 100 µM (inactive).

What about the GI50 (SN12C) of the same compound?
Its GI50 is > 100 µM (inactive).

What about the GI50 (SNB-19) of the same compound?
Its GI50 is > 100 µM (inactive).

What about the GI50 (SF-539) of the same compound?
Its GI50 is 37.1 µM (inactive).

What about the GI50 (A498) of the same compound?
Its GI50 is > 100 µM (inactive).

What about the GI50 (HCT-116) of the same compound?
Its GI50 is > 100 µM (inactive).

What about the GI50 (T47D) of the same compound?
Its GI50 is > 100 µM (inactive).

What about the GI50 (Hs-578T) of the same compound?
Its GI50 is 77.3 µM (inactive).

And the GI50 (U-251)?
The GI50 was > 100 µM (inactive).

What about the GI50 (MCF7) of the same compound?
Its GI50 is > 100 µM (inactive).

And the GI50 (CCRF-CEM)?
The GI50 was > 100 µM (inactive).

And the GI50 (RPMI-8226)?
Its GI50 is > 100 µM (inactive).

And the GI50 (SW-620)?
The GI50 was > 100 µM (inactive).

And the GI50 (HOP-62)?
The GI50 was > 100 µM (inactive).

What about the GI50 (HL-60) of the same compound?
The GI50 was 43.5 µM (inactive).

What about the GI50 (OVCAR-4) of the same compound?
The GI50 was 13 µM (inactive).

And the GI50 (OVCAR-8)?
Its GI50 is > 100 µM (inactive).

And the GI50 (SK-OV-3)?
Its GI50 is > 100 µM (inactive).

And the GI50 (SK-MEL-2)?
Its GI50 is > 100 µM (inactive).

And the GI50 (EKVX)?
The GI50 was > 100 µM (inactive).

What about the GI50 (MOLT-4) of the same compound?
Its GI50 is > 100 µM (inactive).

And the GI50 (HOP-92)?
Its GI50 is > 100 µM (inactive).

What about the GI50 (K562) of the same compound?
The GI50 was > 100 µM (inactive).

What about the GI50 (KM12) of the same compound?
The GI50 was > 100 µM (inactive).

What about the GI50 (MDA-MB-231) of the same compound?
Its GI50 is > 100 µM (inactive).

What about the GI50 (Malme-3M) of the same compound?
Its GI50 is 23 µM (inactive).

What about the GI50 (M14) of the same compound?
The GI50 was > 100 µM (inactive).

And the GI50 (UACC-257)?
The GI50 was > 100 µM (inactive).

And the GI50 (DU-145)?
The GI50 was > 100 µM (inactive).

And the GI50 (SK-MEL-5)?
The GI50 was 50.2 µM (inactive).

What about the GI50 (NCI-H226) of the same compound?
Its GI50 is 36.6 µM (inactive).

What about the GI50 (786-0) of the same compound?
The GI50 was > 100 µM (inactive).

Which GI50 (OVCAR-3) does the source give for O=c1[nH]nc(-c2ccccc2)n1-c1cccc([N+](=O)[O-])c1 here?
The GI50 was > 100 µM (inactive).

What about the GI50 (HCT-15) of the same compound?
The GI50 was over 100 µM.

And the GI50 (TK-10)?
The GI50 was > 100 µM (inactive).

What about the GI50 (A549) of the same compound?
The GI50 was > 100 µM (inactive).

And the GI50 (NCI-H23)?
Its GI50 is > 100 µM (inactive).

And the GI50 (HT-29)?
The GI50 was > 100 µM (inactive).

What about the GI50 (ACHN) of the same compound?
The GI50 was > 100 µM (inactive).

What about the GI50 (LOX IMVI) of the same compound?
The GI50 was > 100 µM (inactive).

What about the GI50 (SNB-75) of the same compound?
Its GI50 is > 100 µM (inactive).

And the GI50 (SF-295)?
Its GI50 is > 100 µM (inactive).

And the GI50 (SK-MEL-28)?
Its GI50 is > 100 µM (inactive).

And the GI50 (RXF 393)?
The GI50 was > 100 µM (inactive).

What about the GI50 (MDA-MB-435) of the same compound?
The GI50 was > 100 µM (inactive).

What about the GI50 (COLO 205) of the same compound?
Its GI50 is > 100 µM (inactive).

And the GI50 (MDA-N)?
Its GI50 is > 100 µM (inactive).

What about the GI50 (CAKI-1) of the same compound?
The GI50 was 89.5 µM (inactive).

What about the GI50 (UO-31) of the same compound?
Its GI50 is 38.5 µM (inactive).

And the GI50 (OVCAR-5)?
The GI50 was > 100 µM (inactive).

And the GI50 (NCI-H460)?
The GI50 was > 100 µM (inactive).

And the GI50 (SF-268)?
The GI50 was > 100 µM (inactive).

What about the GI50 (SR) of the same compound?
Its GI50 is > 100 µM (inactive).

And the GI50 (NCI/ADR-RES)?
The GI50 was > 100 µM (inactive).

And the GI50 (NCI-H522)?
Its GI50 is > 100 µM (inactive).

And the GI50 (IGROV-1)?
Its GI50 is > 100 µM (inactive).

What about the GI50 (SN12C) of the same compound?
Its GI50 is > 100 µM (inactive).

And the GI50 (SNB-19)?
Its GI50 is > 100 µM (inactive).

And the GI50 (SF-539)?
Its GI50 is > 100 µM (inactive).

And the GI50 (A498)?
The GI50 was > 100 µM (inactive).

What about the GI50 (HCT-116) of the same compound?
The GI50 was > 100 µM (inactive).

And the GI50 (T47D)?
Its GI50 is > 100 µM (inactive).

And the GI50 (Hs-578T)?
The GI50 was > 100 µM (inactive).

What about the GI50 (U-251) of the same compound?
Its GI50 is > 100 µM (inactive).

What about the GI50 (MCF7) of the same compound?
Its GI50 is > 100 µM (inactive).

What about the GI50 (CCRF-CEM) of the same compound?
The GI50 was > 100 µM (inactive).

And the GI50 (RPMI-8226)?
Its GI50 is > 100 µM (inactive).

What about the GI50 (SW-620) of the same compound?
The GI50 was > 100 µM (inactive).

And the GI50 (UACC-62)?
Its GI50 is > 100 µM (inactive).

And the GI50 (HOP-62)?
Its GI50 is > 100 µM (inactive).

And the GI50 (OVCAR-4)?
Its GI50 is > 100 µM (inactive).

What about the GI50 (OVCAR-8) of the same compound?
The GI50 was > 100 µM (inactive).

And the GI50 (SK-OV-3)?
Its GI50 is > 100 µM (inactive).

And the GI50 (SK-MEL-2)?
The GI50 was > 100 µM (inactive).

And the GI50 (HCC 2998)?
The GI50 was > 100 µM (inactive).

And the GI50 (EKVX)?
Its GI50 is > 100 µM (inactive).

What about the GI50 (MOLT-4) of the same compound?
Its GI50 is > 100 µM (inactive).

And the GI50 (HOP-92)?
Its GI50 is > 100 µM (inactive).

And the GI50 (K562)?
Its GI50 is > 100 µM (inactive).

What about the GI50 (KM12) of the same compound?
The GI50 was > 100 µM (inactive).

What about the GI50 (MDA-MB-231) of the same compound?
Its GI50 is > 100 µM (inactive).

And the GI50 (Malme-3M)?
The GI50 was > 100 µM (inactive).

What about the GI50 (M14) of the same compound?
The GI50 was > 100 µM (inactive).

What about the GI50 (UACC-257) of the same compound?
Its GI50 is > 100 µM (inactive).

What about the GI50 (DU-145) of the same compound?
Its GI50 is > 100 µM (inactive).

What about the GI50 (SK-MEL-5) of the same compound?
Its GI50 is > 100 µM (inactive).

And the GI50 (NCI-H226)?
The GI50 was > 100 µM (inactive).

What about the GI50 (786-0) of the same compound?
Its GI50 is > 100 µM (inactive).

Source: ChEMBL document CHEMBL1201862, “PubChem BioAssay data set” (2004)
